Source: patent US12338198B2, “Cancer cell growth inhibiting composition and processed food” (HAGIHARA FARM PRODUCTION INSTITUTE CO., LTD., priority 2019, dated 2025)

Test system: Jurkat cells
Assay: Effect of compounds on growth of human leukemic T-cell line Jurkat cells (Trypan Blue live cell count)
Type: cell-based
Conditions: for IC50: Homo sapiens, growth of Jurkat cells, viable cell count; for cancer cell growth inhibiting effect compared with phytol: Jurkat cells, 24-72 hours
Description: Human leukemic T-cell line Jurkat cells were obtained from the RIKEN BioResource Research Center (Tsukuba-shi, Ibaraki Prefecture). The cells were cultured in RPMI1640 medium (Wako Pure Chemical Industries, Ltd., Osaka-shi, Osaka Prefecture) containing 10% fetal bovine serum (Thermo Fisher Scientifics, K.K., MA, USA), 100 U/mL penicillin and 100 μg/mL spletomycin (both Life Technologies, Carlsbad, CA, USA) at 37° C. in a 95% air-5% CO2 environment.
Jurkat cells were adjusted to 1×10^5 cells/mL and seeded in 24-well multi-plates (Thermo Fisher Scientifics K. K.) by 500 μL/well. After seeding, phytol, aminophytol, amidophytol, methylaminophytol, hexylaminophytol, and acetamidophytol were adjusted with distilled water to a final concentration of 10 μM, 25 μM, and 50 μM respectively, and then added. Note that no compound is added to a control. After adding respective compounds, the cells were stained with Tripan Blue (Life Technologies) after 24, 48, and 72 hours, and live cells were counted using a hemocytometer.
A horizontal axis represents culture time (hours) and a vertical axis represents the number of viable cells (×10^5 cells/mL). “Cont” in the figures represents the control, and “10 μM,” “25 μM,” and “50 μM” represent concentration. FIG. 1 is for phytol; FIG. 2 is for aminophytol; FIG. 3 is for amidophytol; FIG. 4 is for monomethylaminophytol; FIG. 5 is for monohexylaminophytol; and FIG. 6 is for acetamidophytol.

[1] = after 24 hours at a concentration of 25 μM

Compound	IC50 [µM]	cancer cell growth inhibiting effect compared with phytol (10, 25, 50 μM)	viable cells [1]	growth of Jurkat cells (cancerous cells) (10, 25, 50 μM, 24, 48, 72 hours, concentration-dependence observed)	viable cells (after 72 hours at a concentration of 50 μM)	viable cells (at a concentration of 25 μM)	viable cells (at a concentration of 50 μM)
CNC/C=C(\C)CCC[C@H](C)CCC[C@H](C)CCCC(C)C (racemic) [monomethylaminophytol, (E)-N,3,7,11,15-pentamethylhexadec-2-en-1-amine]	6.6	more effect than phytol	few cells survived	–	–	–	–
C/C(=C\CN)CCC[C@H](C)CCC[C@H](C)CCCC(C)C (racemic) [aminophytol, (E)-3,7,11,15-tetramethylhexadec-2-en-1-amine]	3.8	more effect than phytol	few cells survived	–	–	–	–
C/C(=C\C(N)=O)CCC[C@H](C)CCC[C@H](C)CCCC(C)C (racemic) [amidophytol, (E)-3,7,11,15-tetramethylhexadec-2-enamide]	9.6	more effect than phytol	few cells survived	–	–	–	–
CCCCCCNC/C=C(\C)CCC[C@H](C)CCC[C@H](C)CCCC(C)C (racemic) [monohexylaminophytol, (E)-N-hexyl-3,7,11,15-tetramethylhexadec-2-en-1-amine]	8.5	more effect than phytol	few cells survived	–	–	–	–
C/C(=C\CO)CCC[C@H](C)CCC[C@H](C)CCCC(C)C [phytol, reference compound]	29.8	–	–	inhibited the growth	viable cells could still be identified	–	–
CC(=O)NC/C=C(\C)CCC[C@H](C)CCC[C@H](C)CCCC(C)C (racemic) [acetamidophytol, (E)-N-(3,7,11,15-tetramethylhexadec-2-en-1-yl)acetamide]	21.2	more effect than phytol	–	–	–	viable cells could still be identified	few cells survived
